# Reference: PubChem BioAssay (NCI)
#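 Test compounds were applied to cells in 96-well plates for 48 hours at 5 doses. GI50: concentration for 50% inhibition of growth. The concentration for full growth arrest is given as TGI.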
# Assays:
# Assay in all cases: growth of human tumour cells (NCI), 48 h
# SK-MEL-2 melanoma = test system: SK-MEL-2 melanoma
# UO-31 renal = test system: UO-31 renal
# 786-0 renal = test system: 786-0 renal
# M14 melanoma = test system: M14 melanoma
# HOP-62 NSCLC = test system: HOP-62 NSCLC
# ACHN renal = test system: ACHN renal
# HOP-92 NSCLC = test system: HOP-92 NSCLC
# TK-10 renal = test system: TK-10 renal
# CCRF-CEM leukemia = test system: CCRF-CEM leukemia
# MDA-MB-435 = test system: MDA-MB-435
Structure (SMILES),TGI (SK-MEL-2 melanoma),TGI (UO-31 renal),TGI (786-0 renal),TGI (M14 melanoma),TGI (HOP-62 NSCLC),TGI (ACHN renal),TGI (HOP-92 NSCLC),TGI (TK-10 renal),TGI (CCRF-CEM leukemia),GI50 (SK-MEL-2 melanoma),GI50 (UO-31 renal),GI50 (786-0 renal),GI50 (HOP-62 NSCLC),GI50 (ACHN renal),GI50 (HOP-92 NSCLC),GI50 (MDA-MB-435),TGI (MDA-MB-435),GI50 (TK-10 renal),GI50 (CCRF-CEM leukemia),GI50 (M14 melanoma)
O=C(O)/C=C/c1ccc(O)c(O)c1,> 100 µM,> 100 µM,> 100 µM,> 100 µM,> 100 µM,> 100 µM,> 100 µM,> 100 µM,> 100 µM,,,,,,,,,,,
Cc1c(C(Cc2ccccc2N(C)C(=O)/C=C\C(=O)O)c2c[nH]c3ccccc23)c2ccccc2n1C (configuration not stated),,27.7 µM,35.9 µM,39.5 µM,32.5 µM,34.3 µM,,33.8 µM,37.1 µM,,,,,,,,,,,
COc1ccc(C(=O)C(C(=O)CCC(=O)Nc2ccc(Cl)c(Cl)c2)c2ccc(OC)cc2)cc1 (configuration not stated),> 100 µM,> 100 µM,> 100 µM,> 100 µM,> 100 µM,> 100 µM,> 100 µM,> 100 µM,> 100 µM,,,,,,,,,,,
NS(=O)(=O)c1ccc(N(/C=C/C(=O)C(F)(F)F)CC(=O)c2ccc(F)cc2)cc1,55.2 µM,> 100 µM,> 100 µM,,> 100 µM,67.1 µM,60.9 µM,> 100 µM,41.5 µM,26.1 µM,31.9 µM,44.7 µM,65.4 µM,21.3 µM,21.3 µM,26.5 µM,79.6 µM,25.9 µM,15.6 µM,
O=C([CH-]C(=O)c1ccccc1)c1ccccc1.O=C([CH-]C(=O)c1ccccc1)c1ccccc1.O=C([CH-]C(=O)c1ccccc1)c1ccccc1.[Ga+3],> 100 µM,> 100 µM,> 100 µM,> 100 µM,,> 100 µM,> 100 µM,> 100 µM,,43.8 µM,30.2 µM,> 100 µM,,59 µM,> 100 µM,,,> 100 µM,,37.6 µM
COc1ccc(C2COc3c(ccc(OC)c3OC)C2=O)cc1OC (configuration not stated),,> 100 µM,> 100 µM,> 100 µM,> 100 µM,> 100 µM,> 100 µM,> 100 µM,> 100 µM,,,,,,,,,,,
Cc1c(Cl)cccc1C(=O)Nc1nc2c(s1)CN(C(=O)Nc1cccc(C(F)(F)F)c1)CC2,> 50 µM,> 50 µM,> 25.3 µM,> 50 µM,> 50 µM,,15.6 µM,> 50 µM,> 50 µM,0.283 µM,0.508 µM,0.254 µM,0.278 µM,0.326 µM,0.18 µM,,,1.56 µM,0.194 µM,0.167 µM
Cc1ccc(S(=O)c2ccccc2[N+](=O)[O-])cc1 (configuration not stated),> 100 µM,> 100 µM,> 100 µM,> 100 µM,> 100 µM,> 100 µM,> 100 µM,> 100 µM,> 100 µM,,,,,,,,,,,
Cn1cc(C2NC(=O)c3ccccc3N2)c2ccccc21 (configuration not stated),,> 100 µM,> 100 µM,> 65.8 µM,> 100 µM,> 92.8 µM,> 100 µM,> 100 µM,0.877 µM,,,,,,,,> 100 µM,,,
CN(C)CC1CC/C(=C\c2ccc(Cl)c(Cl)c2)C1=O (configuration not stated),> 62.9 µM,> 55.9 µM,26.7 µM,48.5 µM,> 95.1 µM,> 62.5 µM,48.2 µM,19.9 µM,22.7 µM,,,,,,,,,,,
NC1=C(O)c2cccc3cccc(c23)C1=O,> 100 µM,> 100 µM,> 100 µM,> 100 µM,,> 100 µM,> 100 µM,> 100 µM,> 100 µM,,,,,,,,,,,
N#CC(C(=O)CCCC(=O)Nc1ccccc1[N+](=O)[O-])c1c(Cl)cccc1Cl (configuration not stated),> 100 µM,> 100 µM,> 100 µM,> 100 µM,> 100 µM,> 100 µM,> 100 µM,> 100 µM,> 100 µM,,,,,,,,,,,
O=S1OC(c2ccccc2)(c2ccccc2)C(c2ccccc2)(c2ccccc2)O1,,> 100 µM,> 100 µM,> 100 µM,> 100 µM,> 100 µM,> 100 µM,> 100 µM,> 100 µM,,,,,,,,,,,
CC(C)(C)CC(C)(C)c1ccc(OCCO)cc1,18.7 µg/mL,,33.7 µg/mL,20.6 µg/mL,16.3 µg/mL,> 75 µg/mL,,33 µg/mL,40.1 µg/mL,8.07 µg/mL,,10.9 µg/mL,3.75 µg/mL,6.05 µg/mL,,6.26 µg/mL,18.6 µg/mL,10.6 µg/mL,6.02 µg/mL,9.29 µg/mL
O=C(NCc1cn(Cc2cccc(Oc3ccccc3)c2)nn1)c1cccnc1Nc1ccc(F)cc1,> 100 µM,> 100 µM,> 100 µM,> 100 µM,32.5 µM,> 100 µM,43.5 µM,> 100 µM,> 100 µM,34.2 µM,86.3 µM,23.2 µM,6.02 µM,11 µM,10.7 µM,,,24.5 µM,> 100 µM,13.7 µM
O=C1NN2CC(c3ccccc3)=NN=C2c2ccccc21,> 100 µM,66.6 µM,72.3 µM,48.9 µM,> 100 µM,> 100 µM,,98.3 µM,55.7 µM,52.8 µM,28 µM,26.2 µM,35 µM,36.9 µM,,36.7 µM,> 100 µM,31.5 µM,22.9 µM,21.9 µM
COc1nc(NC2OC(COC(C)=O)C(OC(C)=O)C(OC(C)=O)C2OC(C)=O)c(N=CC=Nc2c(NC3OC(COC(C)=O)C(OC(C)=O)C(OC(C)=O)C3OC(C)=O)nc(OC)[nH]c2=O)c(=O)[nH]1 (configuration not stated),,> 100 µM,> 100 µM,> 100 µM,> 100 µM,> 100 µM,> 100 µM,> 100 µM,> 100 µM,,,,,,,,,,,
CN(C)CCC(N)(P(=O)([O-])[O-])P(=O)([O-])[O-].N.N.[Pt+2],> 100 µM,> 100 µM,> 100 µM,> 100 µM,> 100 µM,> 100 µM,> 100 µM,> 100 µM,> 100 µM,> 100 µM,> 100 µM,> 100 µM,> 100 µM,> 100 µM,> 100 µM,,,> 100 µM,> 100 µM,> 100 µM
